Test results taken from patent US20020128301A1, “Non-nucleoside reverse transcriptase inhibitors” (priority 1998, published 2002).

Assay: Bioavailability: release of the mother compound of Formula P-2 from orally administered prodrugs in rats, plasma assayed by HPLC
Settings: oral, propylene glycol vehicle, fasted male Sprague Dawley rats, dose corresponding to […]; released drug (1S,2S)-N-[cis-2-(6-fluoro-2-hydroxy-3-propionylphenyl)cyclopropyl]-N'-[2-(5-cyanopyridyl)]urea measured in plasma
Method: At 30, 60, 120, 240 & 360 minutes, 0.2 ml blood were collected, centrifuged and frozen for later analysis. […] Aliquots comprising 40-100 μl of each plasma sample are mixed with an equal volume of acetonitrile (10 seconds, Vibrofex). The sample is centrifuged (2 min, 14000 RPM) and 30 μl the supernatant is injected into an HPLC system, as follows.

SMILES | Bioavailability 0-6 hours [%]
CCC(=O)c1ccc(F)c([C@@H]2C[C@@H]2NC(=O)Nc2ccc(C#N)cn2)c1OCOC(=O)OC(COC(=O)[C@@H](N)C(C)C)COC(=O)[C@@H](N)C(C)C (relative stereo) [Example 6] | 50
CCC(=O)c1ccc(F)c([C@@H]2C[C@@H]2NC(=O)Nc2ccc(C#N)cn2)c1OCOC(=O)[C@@H](N)[C@@H](C)CC (relative stereo) [Example 1, (1S, 2S)-N-{cis-2-[6-fluoro-2-(L-isoleucyloxymethyloxy)-3-propionylphenyl]cyclopropyl}-N′-[2-(5-cyanopyridyl)]urea] | 34
CCC(=O)c1ccc(F)c([C@@H]2C[C@@H]2NC(=O)Nc2ccc(C#N)cn2)c1OC(=O)OCOC(=O)[C@@H](N)C(C)C (relative stereo) [Example 7, (1S,2S)-N-[cis-2-(6-fluoro-2-(L-valyloxy)methoxycarbonyloxy-3-propionylphenyl)cyclopropyl]-N′-[2-(5-cyanopyridyl)]urea] | 70
